Here are results for two molecules from BindingDB's records for doi:10.1021/jm990383f (Upjohn, 2000).

Broadly, the pIC50 is the negative decadic logarithm of the IC50, by convention in mol/L. The low end stands for a large IC50, the high end for a small IC50.

pIC50: −log10 of the molar value.

For test [1], the target named is T1, Gag-Pol polyprotein [588-1027]/[588-1147] (Human immunodeficiency virus 1, UniProt P04585).
T1 construct: 588-1027; 588-1147
Kind of test: HIV-1 RT Assay. Conditions: pH 8.3; 28 °C. An excerpt: (§1) The IC50 of reverse transcriptase is the concentration that inhibits 50% of recombinant HIV-1 RT RNA-directed DNA polymerase activity in vitro.

Test [2] concerns the target T2, Gag-Pol polyprotein [588-1027,P823L]/[588-1147,P823L] (Human immunodeficiency virus 1, UniProt P04585, P823L).
T2 construct: 588-1027; 588-1147
Kind of test: HIV-1 RT Assay. The following applies: pH 8.3; 28 °C.
Text: as §1

Turning to `CCc1c(CCO)nn(-c2ccccc2)c1-c1ccccc1` [1,5-Diphenyl-3-(2-hydroxyethyl)-4-ethylpyrazole], the pIC50 in test [1] is less than 4.30.

As for `C#CCc1c(C)nn(-c2ccccc2)c1-c1ccccc1` [3-methyl-1,5-diphenyl-4-(prop-2-yn-1-yl)-1H-pyrazole], the pIC50 in test [1] is 4.87; in test [2] it was 5.81.
